The record followed here is ChEMBL document CHEMBL5715942, “A novel histone deacetylase 8 (HDAC8)-specific inhibitor PCI-34051 induces apoptosis in T-cell lymphomas” (Leukemia, 2008).

One test has as its system Ramos. The test is described as follows: Anti-proliferative activity against human Ramos cells assessed as growth inhibition incubated for 72 hrs by alamar blue staining based fluorometric assay. In kind it is functional. Background: Resazurin is reduced to fluorescent resorufin, in cell work by metabolically active cells.
Test [1] relates to J.gamma1. The test is described as follows: Induction of apoptosis in human J.gamma1 cells assessed as abolished intracellular calcium level at 10 uM incubated for 5 mins in presence of Iodo-1 by spectrofluorimetric analysis. It counts as functional, cell-based. A general note: Calcium flux is commonly read through the fluorescence of an indicator in the cells.
A further test relates to U-87 MG. The test is described as follows: Induction of apoptosis in human U87 cells incubated for 72 hrs by Annexin-V staining based flow cytometry analysis relative to control. It counts as functional, U-87MG ATCC.
The test system of a further test is DB. The test is described as follows: Induction of apoptosis in human DB cells assessed as cell death at 5 uM incubated for 2 days by Annexin-V staining based flow cytometry analysis. Conditions: time 2.0 day. It counts as functional. In general terms: Flow cytometry measures light scatter and fluorescence of single cells or particles in a stream.
The test system of the next test is A549. The test is described as follows: Induction of apoptosis in human A549 cells incubated for 72 hrs by Annexin-V staining based flow cytometry analysis relative to control. It counts as functional.
The subject of a further test is RPMI-8226. The test is described as follows: Anti-proliferative activity against human RPMI-8226 cells assessed as growth inhibition incubated for 72 hrs by alamar blue staining based fluorometric assay. In kind it is functional.
Test [2] has as its system Jurkat. The test is described as follows: Cytotoxicity in human Jurkat cells assessed as histone acetylation at <25 uM incubated for 24 hrs by Western blotting analysis. It counts as functional, cell-based.
In test [3] the test system is Jurkat. The test is described as follows: Cytotoxicity in human Jurkat cells assessed as tubulin acetylation at <25 uM incubated for 24 hrs by Western blotting analysis. In kind it is functional, cell-based.
Test [4] concerns Jurkat. The test is described as follows: Downregulation of apoptosis in human Jurkat cells incubated for 2 days in presence of U73122 by Annexin-V staining based flow cytometry analysis. In kind it is functional, cell-based. The note with it: dose 10.0 µM, time 2.0 day.
Test [5] relates to J.gamma1. The test is described as follows: Downregulation of apoptosis in human J.gamma1 cells at 5 uM incubated for 2 days by Annexin-V staining based flow cytometry analysis. It counts as functional, cell-based. The note with it: time 2.0 day.
Test [6] relates to J.gamma1. The test is described as follows: Induction of apoptosis in human J.gamma1 cells at 10 uM incubated for 2 days in presence of U-73122 by Annexin-V staining based flow cytometry analysis. In kind it is functional, cell-based. Conditions: time 2.0 day.
In a further test the test system is THP-1. The test is described as follows: Induction of apoptosis in human THP-1 cells assessed as cell death at 5 uM incubated for 2 days by Annexin-V staining based flow cytometry analysis. It counts as functional. Conditions: time 2.0 day.
Test [7] concerns Jurkat. The test is described as follows: Induction of apoptosis in human Jurkat cells assessed as increased caspase-3 activity at 5 uM incubated for 12 to 48 hrs by colorimetric assay. In kind it is functional, cell-based. Conditions: time 12-48 hrs.

Activity calls are given as the source filed them. The rule behind the calls is not given here.

One may read the GI50 as the concentration at which growth is held to half of that of the control.

With `COc1ccc(Cn2ccc3ccc(C(=O)NO)cc32)cc1`, the GI50 in the test with Ramos stood at 6.1 µM; in the test with RPMI-8226 it was 28 µM. The outcome with J.gamma1 [1], in the test with DB, in the test on Jurkat [2], in the test on Jurkat [3], in the test with J.gamma1 [6] and with THP-1 was inactive. Further, the Activity in the test with U-87 MG was 0%; in the test on A549, 0%; with Jurkat [4], “Dose-Dependent Effect”. The result in the test with J.gamma1 [5] and with Jurkat [7] was Active.
